Reference: US20100292210A1, “Novel Compounds for A-Beta-Related Pathologies” (AstraZeneca AB, priority 2009, published 2010)

System: Aβ42 release
Test: Aβ42 release from HEK cells stably expressing APPswe, Meso Scale Discovery electrochemiluminescence assay
Format: cell-based
Conditions: Homo sapiens, HEK293; HEK cell line stably expressing APPswe; 4-6 h incubation with test compound; Aβ42 secreted to cell medium; read-out: pIC50 values of Aβ42 release (converted)
Method: The level of activity of the compounds on Aβ formation was tested using the following method:
Compounds were diluted in 100% DMSO and stored at […] prior to use. Human Embryonic Kidney (HEK) cell line stably expressing APP with the Swedish mutation (APPswe) were cultured using Dulbecco's Modified Eagles medium (DMEM) supplied with […] glucose, Na-pyruvate and GlutaMAX with 10% FBS, 100 U/ml penicillin-streptomycin (PEST) respectively, 1×non-essential amino acids (NEAA), […], 100 μg/ml Zeocine. Cells at about 80% confluence were washed with PBS, detached from culture flasks using 1×Trypsin/EDTA diluted in PBS, re-suspended in cell media and plated in 384-well poly-d-lysine coated cell culture plates at about 10000-15000 cells/well, in 25 μL cell media. Optionally, cryo-preserved cells (frozen and stored at −140° C. in 90% cell media and 10% DMSO) were thawed, washed and plated as above. Next the cells were incubated for 15-24 h at 37° C. and 5% CO2, after which cell medium was changed. Fresh medium containing test compound diluted ×200 from prepared compound plate was added to the cells before further incubation for 4-6 hours at 37° C. and 5% CO2. After incubation with test compound the amount of Aβ peptides, including Aβ42, Aβ40, Aβ39, Aβ38 and Aβ37, secreted to cell medium was analyzed using the electrochemiluminescence assay technology from Meso Scale Discovery Technology, in combination with specific antibodies raised against the different Aβ peptides. Potential cytotoxic effects of the compounds were usually assayed by measuring the ATP content (ViaLight) from cell lysate.

Structure (SMILES) | IC50 [nM]
Cc1noc(-c2ccc(Nc3ccc4c(n3)OC(c3ccccc3)CN(C)C4=O)cc2)n1 (centres unmarked) [Example 1, 4-methyl-8-(4-(3-methyl-1,2,4-oxadiazol-5-yl)phenylamino)-2-phenyl-3,4-dihydropyrido[3,2-f][1,4]oxazepin-5(2H)-one] | 1580
Cc1nccn1-c1ccc(Nc2ccc3c(n2)OC(c2ccccc2)CN(C)C3=O)cc1 (centres unmarked) [Example 2, 4-methyl-8-(4-(2-methyl-1H-imidazol-1-yl)phenylamino)-2-phenyl-3,4-dihydropyrido[3,2-f][1,4]oxazepin-5(2H)-one] | 1260
CN1CC(c2ccccc2)Oc2nc(Nc3ccc(-c4cnco4)cc3)ccc2C1=O (centres unmarked) [Example 3, 4-methyl-8-(4-(1,3-oxazol-5-yl)phenylamino)-2-phenyl-3,4-dihydropyrido[3,2-f][1,4]oxazepin-5(2H)-one] | 398
CN1CC(c2ccccc2)Oc2nc(Nc3ccc(-n4ccnc4)cc3)ccc2C1=O (centres unmarked) [Example 5, 8-(4-(1H-imidazol-1-yl)phenylamino)-4-methyl-2-phenyl-3,4-dihydropyrido[3,2-f][1,4]oxazepin-5(2H)-one] | 1000
Cc1nccn1-c1ccc(Nc2ccc3c(n2)OC(c2ccccc2)CN(C)C3=O)cn1 (centres unmarked) [Example 6, 4-methyl-8-(6-(2-methyl-1H-imidazol-1-yl)pyridin-3-ylamino)-2-phenyl-3,4-dihydropyrido[3,2-f][1,4]oxazepin-5(2H)-one] | 6310
Cc1nccn1-c1ccc(Nc2ccc3c(n2)OC(c2ccccc2)CN(C)C3)cc1 (centres unmarked) [Example 8, 4-Methyl-N-(4-(2-methyl-1H-imidazol-1-yl)phenyl)-2-phenyl-2,3,4,5-tetrahydropyrido[3,2-f][1,4]oxazepin-8-amine] | 158
CN1Cc2ccc(Nc3ccc(-n4ccnc4)cc3)nc2OC(c2ccccc2)C1 (centres unmarked) [Example 18, N-(4-(1H-imidazol-1-yl)phenyl)-4-methyl-2-phenyl-2,3,4,5-tetrahydropyrido[3,2-f][1,4]oxazepin-8-amine] | 100
Cc1nccn1-c1ccc(Nc2ccc3c(n2)OC(c2ccccc2)CN(C)C3)cn1 (centres unmarked) [Example 23, 4-methyl-N-(6-(2-methyl-1H-imidazol-1-yl)pyridin-3-yl)-2-phenyl-2,3,4,5-tetrahydropyrido[3,2-f][1,4]oxazepin-8-amine] | 501
Cc1nccn1-c1ccc(Nc2ccc3c(n2)N(C2CCCC2)CCN(C)C3=O)cc1 [Example 25, 1-cyclopentyl-4-methyl-8-(4-(2-methyl-1H-imidazol-1-yl)phenylamino)-3,4-dihydro-1H-pyrido[2,3-e][1,4]diazepin-5(2H)-one] | 5010
OCCN1Cc2ccc(Nc3ccc(-c4nnc5n4CCC5)cc3)nc2O[C@H](c2ccccc2)C1 [Example 26, (R)-2-(8-(4-(6,7-Dihydro-5H-pyrrolo[2,1-c][1,2,4]triazol-3-yl)phenylamino)-2-phenyl-2,3-dihydropyrido[3,2-f][1,4]oxazepin-4(5H)-yl)ethanol] | 20000
Cc1cc(C2CN(CC#N)Cc3ccc(Nc4ccc(-n5ccnc5C)cc4)nc3O2)n(C)n1 (centres unmarked) [Example 27, 2-(2-(1,3-Dimethyl-1H-pyrazol-5-yl)-8-(4-(2-methyl-1H-imidazol-1-yl)phenylamino)-2,3-dihydropyrido[3,2-f][1,4]oxazepin-4(5H)-yl)acetonitrile] | 7940
CN1CC(c2ccccc2)Oc2nc(Oc3ccc(-n4ccnc4)cc3)ncc2C1=O (centres unmarked) [Example 28, 2-(4-(1H-Imidazol-1-yl)phenoxy)-6-methyl-8-phenyl-7,8-dihydropyrimido[5,4-f][1,4]oxazepin-5(6H)-one] | 6310
COc1cc(Nc2ccc3c(n2)O[C@H](c2ccccc2)CN(CCO)C3)ccc1C#N [Example 29, (R)-4-(4-(2-Hydroxyethyl)-2-phenyl-2,3,4,5-tetrahydropyrido[3,2-f][1,4]oxazepin-8-ylamino)-2-methoxybenzonitrile] | 1260

Second part, the molecule after the results:

IC50 [nM] | Structure (SMILES)
200 | COc1cc(Nc2ccc3c(n2)OC(c2ccccc2)CN(C)C3=O)ccc1-n1cnc(C)c1 (centres unmarked) [Example 4, 8-(3-methoxy-4-(4-methyl-1H-imidazol-1-yl)phenylamino)-4-methyl-2-phenyl-3,4-dihydropyrido[3,2-f][1,4]oxazepin-5(2H)-one]
39.8 | COc1cc(Nc2ccc3c(n2)OC(c2ccccc2)CN(C)C3)ccc1-n1cnc(C)c1 (centres unmarked) [Example 7, N-(3-methoxy-4-(4-methyl-1H-imidazol-1-yl)phenyl)-4-methyl-2-phenyl-2,3,4,5-tetrahydropyrido[3,2-f][1,4]oxazepin-8-amine]
7.94 | COc1nc(Nc2ccc3c(n2)O[C@H](c2ccccc2)CN(C)C3)ccc1-n1cnc(C)c1 [Example 9, (R)—N-(6-methoxy-5-(4-methyl-1H-imidazol-1-yl)pyridin-2-yl)-4-methyl-2-phenyl-2,3,4,5-tetrahydropyrido[3,2-f][1,4]oxazepin-8-amine]
12.6 | COc1cc(Nc2ccc3c(n2)O[C@H](c2ccccc2)CN(C)C3)ccc1-n1cnc(C)c1 [Example 10, (R)—N-(3-methoxy-4-(4-methyl-1H-imidazol-1-yl)phenyl)-4-methyl-2-phenyl-2,3,4,5-tetrahydropyrido[3,2-f][1,4]oxazepin-8-amine]
15.8 | COc1nc(Nc2ccc3c(n2)O[C@H](c2ccccc2)CN(C(C)=O)C3)ccc1-n1cnc(C)c1 [Example 11, (R)-1-(8-(6-methoxy-5-(4-methyl-1H-imidazol-1-yl)pyridin-2-ylamino)-2-phenyl-2,3-dihydropyrido[3,2-f][1,4]oxazepin-4(5H)-yl)ethanone]
15.8 | COc1cc(Nc2ncc3c(n2)O[C@H](c2ccccc2)CN(CCF)C3)ccc1-n1cnc(C)c1 [Example 12, (R)-6-(2-fluoroethyl)-N-(3-methoxy-4-(4-methyl-1H-imidazol-1-yl)phenyl)-8-phenyl-5,6,7,8-tetrahydropyrimido[5,4-f][1,4]oxazepin-2-amine]
20 | COc1cc(Nc2ncc3c(n2)O[C@H](c2ccccc2)CN(C)C3)ccc1-n1cnc(C)c1 [Example 13, (R)—N-(3-methoxy-4-(4-methyl-1H-imidazol-1-yl)phenyl)-6-methyl-8-phenyl-5,6,7,8-tetrahydropyrimido[5,4-f][1,4]oxazepin-2-amine]
20 | COc1cc(Nc2ccc3c(n2)OC(c2ccccc2)CN(CC#N)C3)ccc1-n1cnc(C)c1 (centres unmarked) [Example 14, 2-(8-(3-methoxy-4-(4-methyl-1H-imidazol-1-yl)phenylamino)-2-phenyl-2,3-dihydropyrido[3,2-f][1,4]oxazepin-4(5H)-yl)acetonitrile]
31.6 | COc1cc(Nc2ccc3c(n2)OC(c2ccccc2)CN(CCF)C3)ccc1-n1cnc(C)c1 (centres unmarked) [Example 15, 4-(2-fluoroethyl)-N-(3-methoxy-4-(4-methyl-1H-imidazol-1-yl)phenyl)-2-phenyl-2,3,4,5-tetrahydropyrido[3,2-f][1,4]oxazepin-8-amine]
79.4 | Cc1cn(-c2ccc(Nc3ccc4c(n3)OC(c3ccccc3)CN(C)C4)cc2F)cn1 (centres unmarked) [Example 16, N-(3-fluoro-4-(4-methyl-1H-imidazol-1-yl)phenyl)-4-methyl-2-phenyl-2,3,4,5-tetrahydropyrido[3,2-f][1,4]oxazepin-8-amine]
79.4 | COc1cc(Nc2ccc3c(n2)OC(c2ccccc2)CN(C(C)=O)C3)ccc1-n1cnc(C)c1 (centres unmarked) [Example 17, 1-(8-(3-methoxy-4-(4-methyl-1H-imidazol-1-yl)phenylamino)-2-phenyl-2,3-dihydropyrido[3,2-f][1,4]oxazepin-4(5H)-yl)ethanone]
158 | COc1cc(Nc2ccc3c(n2)OC(c2cccnc2)CN(C)C3)ccc1-n1cnc(C)c1 (centres unmarked) [Example 19, N-(3-methoxy-4-(4-methyl-1H-imidazol-1-yl)phenyl)-4-methyl-2-(pyridin-3-yl)-2,3,4,5-tetrahydropyrido[3,2-f][1,4]oxazepin-8-amine]
200 | COc1cc(Nc2ccc3c(n2)OC(c2ccccc2)CN(CCO)C3=O)ccc1-n1cnc(C)c1 (centres unmarked) [Example 20, 4-(2-Hydroxyethyl)-8-(3-methoxy-4-(4-methyl-1H-imidazol-1-yl)phenylamino)-2-phenyl-3,4-dihydropyrido[3,2-f][1,4]oxazepin-5(2H)-one]
200 | COc1cc(Nc2ccc3c(n2)O[C@@H](c2ccccc2)CN(C)C3)ccc1-n1cnc(C)c1 [Example 21, (S)—N-(3-methoxy-4-(4-methyl-1H-imidazol-1-yl)phenyl)-4-methyl-2-phenyl-2,3,4,5-tetrahydropyrido[3,2-f][1,4]oxazepin-8-amine]
501 | COc1cc(Nc2ccc3c(n2)OC(c2cccnc2)CN(C(C)=O)C3)ccc1-n1cnc(C)c1 (centres unmarked) [Example 22, 1-(8-(3-Methoxy-4-(4-methyl-1H-imidazol-1-yl)phenylamino)-2-(pyridin-3-yl)-2,3-dihydropyrido[3,2-f][1,4]oxazepin-4(5H)-yl)ethanone]
794 | Cc1nccn1-c1ccc(Nc2ccc3c(n2)OC(c2ccccc2)CN(CCO)C3=O)cc1 (centres unmarked) [Example 24, 4-(2-hydroxyethyl)-8-(4-(2-methyl-1H-imidazol-1-yl)phenylamino)-2-phenyl-3,4-dihydropyrido[3,2-f][1,4]oxazepin-5(2H)-one]
